Assay results taken from ChEMBL document CHEMBL3885881, “DrugMatrix”.

Species: Rattus norvegicus
Assay: DrugMatrix - Regimen: Daily Repeat
Assay type: toxicity, organism-based, Sprague-Dawley
Set-up: regimen Daily Repeat, gender Male, age 6-8 weeks
Conditions: in vivo, po, 10 mg/kg, route oral GAVAGE, dose level Low, vehicle .5 % CMC; for ABSOLUTE BASOPHIL / ABSOLUTE EOSINOPHIL / ABSOLUTE LYMPHOCYTE / ABSOLUTE MONOCYTE / ABSOLUTE SEGMENTED NEUTROPHIL / BASOPHIL / EOSINOPHIL / ERYTHROCYTE COUNT / HEMATOCRIT / HEMOGLOBIN / LEUKOCYTE COUNT / LYMPHOCYTE / MEAN CORPUSCULAR HEMOGLOBIN / MEAN CORPUSCULAR HEMOGLOBIN CONCENTRATION / MEAN CORPUSCULAR VOLUME / MONOCYTE / NEUTROPHIL / NUCLEATED RED BLOOD CELLS / PLATELET COUNT: tissue Blood; for ALANINE AMINOTRANSFERASE / ALBUMIN / ALKALINE PHOSPHATASE / ASPARTATE AMINOTRANSFERASE / BLOOD UREA NITROGEN / CARBON DIOXIDE / CHLORIDE / CHOLESTEROL / CREATINE PHOSPHOKINASE / CREATININE / GLUCOSE / LACTATE DEHYDROGENASE / LIPASE / PHOSPHORUS / POTASSIUM / SODIUM / TOTAL BILIRUBIN / TOTAL PROTEIN / URIC ACID: tissue Plasma

`CCOC(=O)[C@H](CCc1ccccc1)N[C@H]1CCc2ccccc2N(CC(=O)O)C1=O` [BENAZEPRIL] was tested, and the “ABSOLUTE BASOPHIL” value (72 h, time 3 day) was 0 CELLS/uL, the “ABSOLUTE EOSINOPHIL” value (72 h, time 3 day) was 0 CELLS/uL and the “ABSOLUTE LYMPHOCYTE” value (72 h, time 3 day) was 8474.33 CELLS/uL. For the same molecule, the “ABSOLUTE MONOCYTE” value (72 h, time 3 day) was 40.67 CELLS/uL, the “ABSOLUTE SEGMENTED NEUTROPHIL” value (72 h, time 3 day) was 418.33 CELLS/uL and the BASOPHIL (72 h, time 3 day) was 0%. For the same molecule, the EOSINOPHIL (72 h, time 3 day) was 0%, the “ERYTHROCYTE COUNT” value (72 h, time 3 day) was 5.44 x10E6/uL and the HEMATOCRIT (72 h, time 3 day) was 35.27%. The HEMOGLOBIN (72 h, time 3 day) was 14.3 G/DL, the “LEUKOCYTE COUNT” value (72 h, time 3 day) was 8.93 x10E3/uL and the LYMPHOCYTE (72 h, time 3 day) was 94.33%. For the same molecule, the “MEAN CORPUSCULAR HEMOGLOBIN” value (72 h, time 3 day) was 26.27 pg, the “MEAN CORPUSCULAR HEMOGLOBIN CONCENTRATION” value (72 h, time 3 day) was 40.53 G/DL and the “MEAN CORPUSCULAR VOLUME” value (72 h, time 3 day) was 64.8 fL. The MONOCYTE (72 h, time 3 day) was 0.67%, the NEUTROPHIL (72 h, time 3 day) was 5% and the “NUCLEATED RED BLOOD CELLS” value (72 h, time 3 day) was 0 /100WBC. For the same molecule, the “PLATELET COUNT” value (72 h, time 3 day) was 1050 x10E3/uL, the “ALANINE AMINOTRANSFERASE” value (72 h, time 3 day) was 47.33 u/L and the ALBUMIN (72 h, time 3 day) was 4.6 G/DL. The “ALKALINE PHOSPHATASE” value (72 h, time 3 day) was 428.33 u/L, the “ASPARTATE AMINOTRANSFERASE” value (72 h, time 3 day) was 84.67 u/L and the “BLOOD UREA NITROGEN” value (72 h, time 3 day) was 18 mg/dL. For the same molecule, the “CARBON DIOXIDE” value (72 h, time 3 day) was 34.33 mmol/L, the CHLORIDE (72 h, time 3 day) was 99 MEQ/L and the CHOLESTEROL (72 h, time 3 day) was 78.67 mg/dL. The “CREATINE PHOSPHOKINASE” value (72 h, time 3 day) was 322 u/L, the CREATININE (72 h, time 3 day) was 0.22 mg/dL and the GLUCOSE (72 h, time 3 day) was 135.33 mg/dL. The “LACTATE DEHYDROGENASE” value (72 h, time 3 day) was 124.67 u/L, the LIPASE (72 h, time 3 day) was 10 u/L and the PHOSPHORUS (72 h, time 3 day) was 10.63 mg/dL. For the same molecule, the POTASSIUM (72 h, time 3 day) was 6.53 MEQ/L, the SODIUM (72 h, time 3 day) was 145.23 MEQ/L and the “TOTAL BILIRUBIN” value (72 h, time 3 day) was 0.2 mg/dL. The “TOTAL PROTEIN” value (72 h, time 3 day) was 6.57 G/DL, the “URIC ACID” value (72 h, time 3 day) was 0.83 mg/dL and the “ABSOLUTE BASOPHIL” value (120 h, time 5 day) was 0 CELLS/uL. The “ABSOLUTE EOSINOPHIL” value (120 h, time 5 day) was 90 CELLS/uL, the “ABSOLUTE LYMPHOCYTE” value (120 h, time 5 day) was 12851.33 CELLS/uL and the “ABSOLUTE MONOCYTE” value (120 h, time 5 day) was 265.67 CELLS/uL. For the same molecule, the “ABSOLUTE SEGMENTED NEUTROPHIL” value (120 h, time 5 day) was 1459.67 CELLS/uL, the BASOPHIL (120 h, time 5 day) was 0% and the EOSINOPHIL (120 h, time 5 day) was 0.67%. The “ERYTHROCYTE COUNT” value (120 h, time 5 day) was 5.31 x10E6/uL, the HEMATOCRIT (120 h, time 5 day) was 33.43% and the HEMOGLOBIN (120 h, time 5 day) was 13.47 G/DL. The “LEUKOCYTE COUNT” value (120 h, time 5 day) was 14.67 x10E3/uL, the LYMPHOCYTE (120 h, time 5 day) was 88% and the “MEAN CORPUSCULAR HEMOGLOBIN” value (120 h, time 5 day) was 25.33 pg. For the same molecule, the “MEAN CORPUSCULAR HEMOGLOBIN CONCENTRATION” value (120 h, time 5 day) was 40.27 G/DL, the “MEAN CORPUSCULAR VOLUME” value (120 h, time 5 day) was 62.9 fL and the MONOCYTE (120 h, time 5 day) was 2%. For the same molecule, the NEUTROPHIL (120 h, time 5 day) was 9.33%, the “NUCLEATED RED BLOOD CELLS” value (120 h, time 5 day) was 0 /100WBC and the “PLATELET COUNT” value (120 h, time 5 day) was 1304.67 x10E3/uL. The “ALANINE AMINOTRANSFERASE” value (120 h, time 5 day) was 52.67 u/L, the ALBUMIN (120 h, time 5 day) was 4.2 G/DL and the “ALKALINE PHOSPHATASE” value (120 h, time 5 day) was 304.33 u/L. For the same molecule, the “ASPARTATE AMINOTRANSFERASE” value (120 h, time 5 day) was 76 u/L, the “BLOOD UREA NITROGEN” value (120 h, time 5 day) was 18 mg/dL and the “CARBON DIOXIDE” value (120 h, time 5 day) was 32 mmol/L. The CHLORIDE (120 h, time 5 day) was 102 MEQ/L, the CHOLESTEROL (120 h, time 5 day) was 73.67 mg/dL and the “CREATINE PHOSPHOKINASE” value (120 h, time 5 day) was 234.67 u/L. The CREATININE (120 h, time 5 day) was 0.15 mg/dL, the GLUCOSE (120 h, time 5 day) was 160.67 mg/dL and the “LACTATE DEHYDROGENASE” value (120 h, time 5 day) was 106.67 u/L. It also gave an LIPASE (120 h, time 5 day) of 9 u/L, a PHOSPHORUS (120 h, time 5 day) of 13.27 mg/dL and a POTASSIUM (120 h, time 5 day) of 7.06 MEQ/L. The SODIUM (120 h, time 5 day) was 144.9 MEQ/L, the “TOTAL BILIRUBIN” value (120 h, time 5 day) was 0.2 mg/dL and the “TOTAL PROTEIN” value (120 h, time 5 day) was 6.27 G/DL. For the same molecule, the “URIC ACID” value (120 h, time 5 day) was 1.57 mg/dL.
